Data as given in PubChem BioAssay AID330 (DTP/NCI, 2004).
“And” between values parts separate entries of the source, which are not always exact repeats. Equal entries are not always repeated. Inconclusive results and toxic doses are left out. Rule for the calls: active = survival T/C of 150% or more; inactive = T/C below 125% in these data.

System: P388 leukemia ip, CD2F1 mice, survival T/C
Assay: NCI In Vivo Anticancer Drug Screen. Data for tumor model P388 Leukemia (intraperitoneal) in CD2F1 (CDF1) mice
Settings: endpoint: median survival time, higher = longer survival
In short: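 Mice carrying the transplanted tumor received test compound or vehicle. Survival was recorded in each group, and the value is the treated-group measurement divided by that of the vehicle-treated control group.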

[1] = dose: 50.0 mg/kg/injection, schedule: Q01DX009 (ip), vehicle: Klucel (hydroxypropylcellulose) (HPC)
[2] = dose: 100.0 mg/kg/injection, schedule: Q01DX009 (ip), vehicle: Klucel (hydroxypropylcellulose) (HPC)
[3] = dose: 200.0 mg/kg/injection, schedule: Q01DX009 (ip), vehicle: Klucel (hydroxypropylcellulose) (HPC)
[4] = dose: 50.0 mg/kg/injection, schedule: Q01DX009 (ip), vehicle: saline
[5] = dose: 100.0 mg/kg/injection, schedule: Q01DX009 (ip), vehicle: saline
[6] = dose: 25.0 mg/kg/injection, schedule: Q01DX009 (ip), vehicle: saline with Tween-80
[7] = dose: 50.0 mg/kg/injection, schedule: Q01DX009 (ip), vehicle: saline with Tween-80
[8] = dose: 100.0 mg/kg/injection, schedule: Q01DX009 (ip), vehicle: saline with Tween-80
[9] = dose: 50.0 mg/kg/injection, schedule: Q01DX005 (ip), vehicle: Klucel (hydroxypropylcellulose) (HPC)
[10] = dose: 100.0 mg/kg/injection, schedule: Q01DX005 (ip), vehicle: Klucel (hydroxypropylcellulose) (HPC)
[11] = dose: 50.0 mg/kg/injection, schedule: Q04DX003 (ip), vehicle: saline with Tween-80
[12] = dose: 100.0 mg/kg/injection, schedule: Q04DX003 (ip), vehicle: saline with Tween-80
[13] = dose: 200.0 mg/kg/injection, schedule: Q04DX003 (ip), vehicle: saline with Tween-80
[14] = dose: 200.0 mg/kg/injection, schedule: Q01DX009 (ip), vehicle: saline with Tween-80
[15] = dose: 12.5 mg/kg/injection, schedule: Q01DX009 (ip), vehicle: saline with Tween-80

Measured: T/C

CCC(=O)/C=C/c1cc(OC)c(OC)c(OC)c1
inactive: dose: 100.0 mg/kg/injection, schedule: Q01DX001 (ip), vehicle: Klucel (hydroxypropylcellulose) (HPC) 107 % of control | dose: 200.0 mg/kg/injection, schedule: Q01DX001 (ip), vehicle: Klucel (hydroxypropylcellulose) (HPC) 107 % of control | dose: 400.0 mg/kg/injection, schedule: Q01DX001 (ip), vehicle: Klucel (hydroxypropylcellulose) (HPC) 100 % of control

COc1ccc(CCN2C(=O)C(=O)N(C)C2=O)cc1OC
inactive: [1] 90 % of control | [2] 96 % of control | [3] 102 % of control

CCOC(=O)c1sc(SSc2sc(C(=O)OCC)c(-c3ccccc3)c2[N+](=O)[O-])c([N+](=O)[O-])c1-c1ccccc1
inactive: dose: 100.0 mg/kg/injection, schedule: Q04DX002 (ip), vehicle: saline with Tween-80 104 % of control | dose: 200.0 mg/kg/injection, schedule: Q04DX002 (ip), vehicle: saline with Tween-80 107 % of control | dose: 400.0 mg/kg/injection, schedule: Q04DX002 (ip), vehicle: saline with Tween-80 118 % of control

O=S(=O)(Cc1ccccc1)c1ccccc1
inactive: [4] 118 % of control | [5] 118 % of control | dose: 200.0 mg/kg/injection, schedule: Q01DX009 (ip), vehicle: saline 116 % of control

CC(=O)Nc1ccc(C(/C=N\NC(N)=S)=N/NC(N)=S)cc1
inactive: [6] 99 % of control | [7] 97 % of control | [8] 105 % of control

CCOC(=O)/C(N)=N/N=Nc1ccc([N+](=O)[O-])cc1
inactive: [4] 103 % of control | [5] 103 % of control

COc1cccc2c1C(=O)c1c(O)c3c(c(O)c1C2=O)CC(O)(C(C)O)CC3 (centres undefined)
inactive: dose: 1.0 mg/kg/injection, schedule: Q01DX009 (ip), vehicle: Klucel (hydroxypropylcellulose) (HPC) 102 % of control | dose: 2.0 mg/kg/injection, schedule: Q01DX009 (ip), vehicle: Klucel (hydroxypropylcellulose) (HPC) 99 % of control | dose: 4.0 mg/kg/injection, schedule: Q01DX009 (ip), vehicle: Klucel (hydroxypropylcellulose) (HPC) 95 % of control | dose: 8.0 mg/kg/injection, schedule: Q01DX009 (ip), vehicle: Klucel (hydroxypropylcellulose) (HPC) 92 % of control

CCOc1cc(CN2CCN(CCO)CC2)c(O)c(CN2CCN(CCO)CC2)c1
inactive: dose: 60.0 mg/kg/injection, schedule: Q01DX005 (ip), vehicle: water 97 % of control | dose: 120.0 mg/kg/injection, schedule: Q01DX005 (ip), vehicle: water 103 % of control | dose: 240.0 mg/kg/injection, schedule: Q01DX005 (ip), vehicle: water 104 % of control

CN1Cc2[nH]c3c(c2C(O)C1)C(=O)CC(C)(C)C3 (centres undefined)
inactive: dose: 50.0 mg/kg/injection, schedule: Q04DX002 (ip), vehicle: saline 94 % of control | dose: 100.0 mg/kg/injection, schedule: Q04DX002 (ip), vehicle: saline 103 % of control | dose: 200.0 mg/kg/injection, schedule: Q04DX002 (ip), vehicle: saline 101 % of control

NC(=NCc1ccc2c(c1)OCO2)N[N+](=O)[O-]
inactive: [9] 104 % of control | [10] 100 % of control | dose: 200.0 mg/kg/injection, schedule: Q01DX005 (ip), vehicle: Klucel (hydroxypropylcellulose) (HPC) 96 % of control

O=C(CC(O)(C(F)(F)Cl)C(F)(F)Cl)c1ccco1
inactive: [11] 109 % of control | [12] 118 % of control | [13] 100 % of control

Nc1nc(Sc2ccccn2)ccc1[N+](=O)[O-]
inactive: [7] 91 % of control | [8] 91 % of control | [14] 102 % of control

CC(=O)NCC(O)CNC(C)=O
inactive: dose: 6.25 mg/kg/injection, schedule: Q01DX009 (ip), vehicle: saline 103 % of control | dose: 12.5 mg/kg/injection, schedule: Q01DX009 (ip), vehicle: saline 97 % of control | dose: 25.0 mg/kg/injection, schedule: Q01DX009 (ip), vehicle: saline 95 % of control

Cc1cc(=O)[nH]c2cc(O)ccc12
inactive: dose: 25.0 mg/kg/injection, schedule: Q01DX005 (ip), vehicle: Klucel (hydroxypropylcellulose) (HPC) 100 % of control | [9] 93 % of control | [10] 98 % of control

O=C(Nc1ccc(NC(=O)Nc2cccc(C3=NCCCN3)c2)cc1)Nc1ccc(C2=NCCCN2)cc1
inactive: dose: 2.5 mg/kg/injection, schedule: Q01DX009 (ip), vehicle: saline with Tween-80 113 % of control | dose: 5.0 mg/kg/injection, schedule: Q04DX003 (ip), vehicle: saline with Tween-80 100 % of control | dose: 10.0 mg/kg/injection, schedule: Q04DX003 (ip), vehicle: saline with Tween-80 109 % of control

CCCCCCCC(=O)Nc1nnc(SCCCCCCSc2nnc(NC(=O)CCCCCCC)s2)s1
inactive: dose: 50.0 mg/kg/injection, schedule: Q01DX005 (ip), vehicle: Klucel + Tween-80 90 % of control | dose: 100.0 mg/kg/injection, schedule: Q01DX005 (ip), vehicle: Klucel + Tween-80 90 % of control | dose: 200.0 mg/kg/injection, schedule: Q01DX005 (ip), vehicle: Klucel + Tween-80 95 % of control

COc1ccc(Cl)cc1NC(=O)Oc1ccncc1
inactive: dose: 0.78 mg/kg/injection, schedule: Q01DX009 (ip), vehicle: saline with Tween-80 94 % of control | dose: 1.56 mg/kg/injection, schedule: Q01DX009 (ip), vehicle: saline with Tween-80 88 % of control | dose: 3.12 mg/kg/injection, schedule: Q01DX009 (ip), vehicle: saline with Tween-80 87 % of control and 88 % of control | dose: 6.25 mg/kg/injection, schedule: Q01DX009 (ip), vehicle: saline with Tween-80 86 % of control | [15] 88 % of control | [7] 87 % of control | [8] 101 % of control | [14] 94 % of control

C/C=c1/[nH]c(=O)/c(=C\c2ccc(Cl)cc2)[nH]c1=O
inactive: [1] 91 % of control | [2] 93 % of control | [3] 94 % of control

S=C(NC1CCCCC1)N1CCC(CCCC2CCN(C(=S)NC3CCCCC3)CC2)CC1
inactive: dose: 25.0 mg/kg/injection, schedule: Q04DX003 (ip), vehicle: saline with Tween-80 90 % of control | [7] 90 % of control | [11] 90 % of control | [8] 90 % of control and 95 % of control | [12] 90 % of control | [14] 90 % of control | [13] 90 % of control | dose: 400.0 mg/kg/injection, schedule: Q01DX009 (ip), vehicle: saline with Tween-80 95 % of control | dose: 400.0 mg/kg/injection, schedule: Q04DX003 (ip), vehicle: saline with Tween-80 90 % of control

COC(=O)c1cc2cccn2cn1
inactive: [15] 115 % of control | [6] 115 % of control | [7] 104 % of control | [8] 91 % of control | [14] 100 % of control

COc1ccc(C(=O)CC(=O)CCC(=O)Nc2ccc(Cl)cc2Cl)cc1
inactive: dose: 60.0 mg/kg/injection, schedule: Q01DX005 (ip), vehicle: saline with Tween-80 103 % of control | dose: 120.0 mg/kg/injection, schedule: Q01DX005 (ip), vehicle: saline with Tween-80 101 % of control | dose: 240.0 mg/kg/injection, schedule: Q01DX005 (ip), vehicle: saline with Tween-80 92 % of control

N#CC(C#N)/C=C/[Se]c1ccccc1
inactive: dose: 100.0 mg/kg/injection, schedule: Q04DX003 (ip), vehicle: saline 104 % of control | dose: 200.0 mg/kg/injection, schedule: Q04DX003 (ip), vehicle: saline 98 % of control | dose: 400.0 mg/kg/injection, schedule: Q04DX003 (ip), vehicle: saline 109 % of control
